Experimental data taken from publication PMC13608006 (Journal of medicinal chemistry, 2018).

Legend:
[1] = system: EV-A71; assay: antiviral CPE assay, anti-EV-A71 in LLC cells; assay type: cell-based, enterovirus 71 (EV-A71); conditions: SI50 = CC50/EC50
[2] = system: CV-B3 (CVB3-H3); assay type: cell-based, coxsackievirus B3; conditions: SI50 = CC50/EC50
[3] = system: PV-1; assay type: cell-based, poliovirus-1; conditions: SI50 = CC50/EC50
[4] = system: CVB3-H3-C179F; assay type: cell-based, coxsackievirus B3
[5] = in vitro; conditions: human

SMILES	SI50 (EV-A71 in LLC cells) [1]	SI50 (CV-B3 in HeLa cells) [2]	SI50 (PV-1 in HeLa cells) [3]	inhibition of CVB3-H3-C179F (missense mutation in the 2C coding domain) [4]	CC50 [5] [µM]	CC50 ([5]; CC50 (anti-PV-1 in HeLa cells column)) [µM]
CC(C)n1ncc2c(C(=O)Nc3ccccc3F)cc(-c3cccs3)nc21 [JX001, N-(2-Fluorophenyl)-1-isopropyl-6-(thiophen-2-yl)-1H-pyrazolo[3,4-b]pyridine-4-carboxamide]	SI50: 21.7	SI50: 8.9	SI50: 1.8	resistant	–	–
CC(C)n1ncc2c(C(=O)Nc3cncnc3)cc(-c3cccs3)nc21 [JX066, 1-Isopropyl-N-(pyrimidin-5-yl)-6-(thiophen-2-yl)-1H-pyrazolo[3,4-b]pyridine-4-carboxamide]	SI50: 50.0	SI50: 25.7	SI50: 1.8	–	–	–
CC(C)n1ncc2c(C(=O)Nc3cccc(S(N)(=O)=O)c3)cc(-c3cccs3)nc21 [JX025, 1-Isopropyl-N-(3-sulfamoylphenyl)-6-(thiophen-2-yl)-1H-pyrazolo[3,4-b]pyridine-4-carboxamide]	SI50: 19.2	–	SI50: 10.0	–	> 200	50
CC(C)n1ncc2c(C(=O)Nc3cccc(C(N)=O)c3)cc(-c3cccs3)nc21 [JX064, N-(3-Carbamoylphenyl)-1-isopropyl-6-(thiophen-2-yl)-1H-pyrazolo[3,4-b]pyridine-4-carboxamide]	SI50: 31.3	SI50: 25.7	SI50: 2.9	–	–	–
CC(C)n1ncc2c(C(=O)Nc3ccc(F)cc3)cc(-c3ccsc3)nc21 [JX030, N-(4-Fluorophenyl)-1-isopropyl-6-(thiophen-3-yl)-1H-pyrazolo[3,4-b]pyridine-4-carboxamide]	SI50: >142.9	SI50: 19.2	–	–	–	–
CC(C)n1ncc2c(C(=O)Nc3cc(C(N)=O)ccc3F)cc(-c3cccs3)nc21 [JX073, N-(5-Carbamoyl-2-fluorophenyl)-1-isopropyl-6-(thiophen-2-yl)-1H-pyrazolo[3,4-b]pyridine-4-carboxamide]	SI50: 50.0	SI50: 23.5	SI50: 3.8	–	–	–
CC(C)n1ncc2c(C(=O)Nc3cccc(S(=O)(=O)N(C)C)c3)cc(-c3cccs3)nc21 [JX052, N-(3-(N,N-Dimethylsulfamoyl)phenyl)-1-isopropyl-6-(thiophen-2-yl)-1H-pyrazolo[3,4-b]pyridine-4-carboxamide]	SI50: >250.0	SI50: 12.0	–	–	–	–
CC(C)n1ncc2c(C(=O)Nc3ccc(F)cc3)cc(-c3ccco3)nc21 [JX026, N-(4-Fluorophenyl)-6-(furan-2-yl)-1-isopropyl-1H-pyrazolo-[3,4-b]pyridine-4-carboxamide]	SI50: >76.9	SI50: >83.0	–	–	–	–
CC(C)n1ncc2c(C(=O)Nc3cccnc3)cc(-c3cccs3)nc21 [JX056, 1-Isopropyl-N-(pyridin-3-yl)-6-(thiophen-2-yl)-1H-pyrazolo-[3,4-b]pyridine-4-carboxamide]	SI50: >400.0	SI50: 62.5	SI50: 2.5	–	–	–
CC(C)n1ncc2c(C(=O)Nc3cc(S(N)(=O)=O)ccc3F)cc(-c3cccs3)nc21 [JX068, N-(2-Fluoro-5-sulfamoylphenyl)-1-isopropyl-6-(thiophen-2-yl)-1H-pyrazolo[3,4-b]pyridine-4-carboxamide]	SI50: 50.0	SI50: 25.7	SI50: 2.9	–	–	–
CC(C)n1ncc2c(C(=O)Nc3ccncc3)cc(-c3cccs3)nc21 [JX042, 1-Isopropyl-N-(pyridin-4-yl)-6-(thiophen-2-yl)-1H-pyrazolo-[3,4-b]pyridine-4-carboxamide]	SI50: 15.8	SI50: 10.0	–	–	–	–
CC(C)n1ncc2c(C(=O)Nc3ccccc3F)cc(-c3ccccc3)nc21 [JX002, N-(2-Fluorophenyl)-1-isopropyl-6-phenyl-1H-pyrazolo[3,4-b]pyridine-4-carboxamide]	SI50: >35.1	SI50: 8.3	–	–	–	–
CC(C)n1ncc2c(C(=O)Nc3ncccn3)cc(-c3cccs3)nc21 [JX041, 1-Isopropyl-N-(pyrimidin-2-yl)-6-(thiophen-2-yl)-1H-pyrazolo[3,4-b]pyridine-4-carboxamide]	SI50: 150.0	SI50: 62.5	–	–	–	–
CC(C)n1ncc2c(C(=O)Nc3ccccn3)cc(-c3cccs3)nc21 [JX040, 1-Isopropyl-N-(pyridin-2-yl)-6-(thiophen-2-yl)-1H-pyrazolo-[3,4-b]pyridine-4-carboxamide]	SI50: >400.0	SI50: >250.0	–	–	–	–
CC(C)n1ncc2c(C(=O)Nc3ccc(F)cc3F)cc(-c3cccs3)nc21 [JX008, N-(2,4-Difluorophenyl)-1-isopropyl-6-(thiophen-2-yl)-1H-pyrazolo[3,4-b]pyridine-4-carboxamide]	SI50: >125.0	SI50: >142.9	–	–	–	–
CC(C)n1ncc2c(C(=O)Nc3cccc(F)c3)cc(-c3cccs3)nc21 [JX021, N-(3-Fluorophenyl)-1-isopropyl-6-(thiophen-2-yl)-1H-pyrazolo[3,4-b]pyridine-4-carboxamide]	SI50: >83.3	SI50: >250.0	–	–	–	–
CC(C)n1ccc2c(C(=O)Nc3cccnc3)cc(-c3cccs3)nc21 [JX062, 1-Isopropyl-N-(pyridin-3-yl)-6-(thiophen-2-yl)-1H-pyrrolo-[2,3-b]pyridine-4-carboxamide]	SI50: 31.3	SI50: 13.8	–	–	–	–
CC(C)n1ncc2c(C(=O)Nc3cccnc3)cc(-c3ccsc3)nc21 [JX060, 1-Isopropyl-N-(pyridin-3-yl)-6-(thiophen-3-yl)-1H-pyrazolo-[3,4-b]pyridine-4-carboxamide]	SI50: 15.4	SI50: 30.0	–	–	–	–
